Results published in patent publication US11744269B2, “Vegetable and fruit wash formulation and uses thereof” (priority 2020, dated 2023).

Columns and labels:
[1] = test system: crown rot disease in Banana; assay: Crown rotting evaluation of bananas washed in industrial set-up (banana plantation); conditions: bananas soaked 30 minutes maximum in 2% VFW solution in water or NaClO solution in water
Procedure: As crown rot progresses, fruits like banana begins to soften and blacken and induces early ripening of fruits.
The crown-rot and fruit blackening studies are conducted to determine the efficacy of the Vegetable and Fruit Wash to protect the fruits from the so-called disease and also from premature ripening. This study is also conducted to determine the efficacy of the present invention in prolonging the life of the fruits, i.e. in increasing the shelf life of the fruits.
A batch of bananas is washed using 2% of Vegetable and Fruit Wash solution in water. The bananas are soaked in the solution for 30 minutes maximum, rinsed, dried and packed and are observed after 2 weeks of washing and after 4 weeks of washing post-delivery and ripening. Another batch of bananas are washed using Sodium Hypochlorite (NaClO) solution in water as per the industry standard washing procedure. The bananas are soaked in the solution for 30 minutes maximum, rinsed, dried and packed. They are observed after 2 weeks of washing and after 4 weeks of washing post delivery and ripening.

[2] = test system: Candida albicans 10231; assay: Zone of Inhibition Assay for Candida albicans 10231; assay type: cell-based
Procedure: Candida albicans is opportunistic pathogenic yeast found to have growth on fruits rich in sugar content like bananas, dates, grapes, mango, and dried fruit. The zone of inhibition assay is performed for the culture of Candida albicans 10231.

[3] = test system: Escherichia coli 8739; assay: Zone of Inhibition Assay for Escherichia coli 8739; assay type: cell-based
Procedure: (§1) The anti-microbial efficacy of VFW composition is evaluated by finding its zone of inhibition against Staphylococcus Aureus, Escherichia coli, Candida Albicans and Aspergillus Niger and compared with zone of inhibition of standard antibiotics known to be very potent in eliminating the subject microorganism.
as §1, with “albicans” for “Albicans”, “niger” for “Niger”
20-30% of food-poisoning outbreaks linked to disease causing strains of the bacterium Escherichia coli are caused by people eating contaminated vegetables. The assay was performed for the culture of Escherichia coli 8739. Gentamicin is known to be very effective in eliminating this strain and is used as standard antibiotic.

[4] = test system: Staphylococcus aureus ATCC 6538; assay: Zone of Inhibition Assay for Staphylococcus aureus ATCC 6538; assay type: cell-based
Procedure: as §1
as §1, with “albicans” for “Albicans”, “niger” for “Niger”
Staphylococcus aureus is a gram-positive, round-shaped bacterium found as dominant genera on the surfaces of vegetables and fruits. The assay was performed for the culture of Staphylococcus aureus ATCC 6538. Ciplox is known to be very effective in eliminating this strain. It was used as standard antibiotic.

Compound: OCl [NaClO, Sodium Hypochlorite]
- Number of Rotten Crowns 2 weeks after Washing [1]: 1
- Number of Rotten Crowns 4 weeks after Washing [1]: 3
- Number of Rotten Crowns after Ripening [1]: 5

Compound: Zinc pyrithione [ZPTO]
- Zone of Inhibition (mm) [2]: 24.37 mm

Compound: Gentamicin
- Zone of Inhibition (mm) [3]: 24.54 mm

Compound: O=C(O)c1cn(C2CC2)c2cc(N3CCNCC3)c(F)cc2c1=O [Ciplox]
- Zone of Inhibition (mm) [4]: 27.64 mm
